# Data: ChEMBL document CHEMBL5604061, “ASAP - WNV NS2B-NS3 protease fluorescence dose response” (2024)
# Target: T1, NS3 (West Nile virus, UniProt K4FQI5)
# T1 sequence (K4FQI5 whole entry): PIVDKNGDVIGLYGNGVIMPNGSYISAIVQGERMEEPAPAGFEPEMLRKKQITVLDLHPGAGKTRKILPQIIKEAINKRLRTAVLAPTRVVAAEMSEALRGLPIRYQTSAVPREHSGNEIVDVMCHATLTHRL
# Assay: Functional biochemical assay to identify treatments for viral infectious disease that targets West Nile NS2B-NS3 protease. Utilizing a direct enzyme activity measurement method, reading the fluorescence intensity is used to characterize the relative potency of inhibitors as IC50.
# Design: species or system NY-99
row,SMILES,IC50 [µM]
1,COc1ccc(S(=O)(=O)n2nc(OC(=O)c3cccc(-c4ccccc4Cl)c3)cc2N)cc1,1.09
2,Cc1cc(CN)cc(NC(=O)c2cc(Cl)cc3[nH]ncc23)c1,22.6
3,O=C(Nc1ccc2c(c1)CNC2)c1cc(Br)cc2c1OCO2,> 99.5
4,NCCc1cccc(NC(=O)c2cc(Cl)cc3[nH]ncc23)c1,94.5
5,O=C(Nc1ccc2c(n1)CNC2)c1cc(Cl)cc2[nH]ncc12,35.2
6,Cn1ncc2c(C(=O)Nc3ccc4c(c3)CNC4)cc(Br)cc21,47.2
7,N[C@H]1Cc2ccc(NC(=O)c3cc(Cl)cc4[nH]ncc34)cc2C1,51.6
8,N#Cc1cc(C(=O)Nc2ccc3c(c2)CNC3)cc(C(F)(F)F)c1,98.1
9,CN(c1ccc2c(c1)CNC2)[C@H](C(=O)NCC(F)F)c1cc(Cl)cc(C2CC2)c1,0.131
10,Cc1ncc(-c2cc(F)cc(C(=O)Nc3ccc4c(c3)CNC4)c2)o1,6.67
11,O=C(O)c1ccc(-c2cc(NC(=O)c3cc(F)cc4[nH]ncc34)cc3c2CNC3)cc1,1.15
12,O=C(Nc1ccc2c(c1)CNC2)c1cc(F)cc(C=C2CCS(=O)(=O)CC2)c1,14.5
13,O=C(NCC(F)F)[C@H](Nc1ccc2c(c1)CNC2)c1cc(Cl)ccc1Sc1ccccc1,9.51
14,CO[C@H]1C[C@H](n2cc3c(C(=O)Nc4ccc5c(c4)CNC5)cc(Cl)cc3n2)C1,13.9
15,O=C(Nc1ccc2c(c1)CNC2)c1cc(F)cc(-c2cn[nH]c2)c1,0.691
16,N#Cc1cccc(-c2nc3c(C(=O)Nc4ccc5c(c4)CNC5)cc(F)cc3[nH]2)c1,3.76
17,O=C(Nc1cc2c(c(-c3c[nH]c(=O)c(F)c3)c1)CNC2)c1cc(F)cc2[nH]ncc12,0.668
18,COC[C@]1(c2nc3c(C(=O)Nc4ccc5c(c4)CNC5)cc(F)cc3[nH]2)CCOC1,20.5
19,Cc1cc(C(=O)Nc2ccc3c(c2)CNC3)cc2nc[nH]c12,12.5
20,N#Cc1c[nH]c2ccc(C(=O)Nc3ccc4c(c3)CNC4)cc12,9.06
21,O=C(Nc1ccc2c(c1)CNC2)c1cc(F)cc(C2=CCCOC2)c1,9.61
22,CNC(=O)[C@H](Nc1ccc2c(c1)CNC2)c1cc(Cl)cc2[nH]c(-c3ccccc3)nc12,0.281
23,CC(C)Cn1cc2c(C(=O)Nc3ccc4c(c3)CNC4)cc(Cl)cc2n1,14.7
24,O=C(Nc1ccc2c(c1)CNC2)c1cc(Cl)cc2nn(C3CCOCC3)cc12,14
25,O=C(NCCCF)[C@H](Nc1ccc2c(c1)CNC2)c1cc(Cl)cc(C2CC2)c1,0.249
26,COC(=O)[C@H](C)n1cc2c(C(=O)Nc3ccc4c(c3)CNC4)cc(Cl)cc2n1,9.12

row,SMILES,IC50 [µM]
1,O=C(NCC(F)F)[C@H](Nc1ccc2c(c1)CNC2)c1cc(Cl)ccc1Cl,3.01
2,N#Cc1ccc(-c2nc3c(C(=O)Nc4ccc5c(c4)CNC5)cc(F)cc3[nH]2)cc1,2.91
3,O=C(Nc1ccc2c(c1)CNC2)c1cc(F)cc(-c2ccc3c(=O)[nH]ncc3c2)c1,5.15
4,COCn1ncc2c(C(=O)Nc3ccc4c(c3)CNC4)cc(Cl)cc21,3.73
5,COc1cccc(-c2nc3c(C(=O)Nc4ccc5c(c4)CNC5)cc(F)cc3[nH]2)c1,6.6
6,CO[C@H]1C[C@H](n2ncc3c(C(=O)Nc4ccc5c(c4)CNC5)cc(Cl)cc32)C1,2.55
7,CC(C)c1nn(C)cc1-c1cc(F)cc(C(=O)Nc2ccc3c(c2)CNC3)c1,11.9
8,NCCc1cc(Cl)cc(C(=O)Nc2cccc(CN)c2)c1,5.52
9,O=C(Nc1ccc2c(c1)CNC2)c1cc(F)cc2[nH]c(CC[C@H]3CCCOC3)nc12,3.78
10,COc1cc(C(=O)Nc2ccc3c(c2)CNC3)cc2ccoc12,48.9
11,CN(C)c1nc(-c2cc(F)cc(C(=O)Nc3ccc4c(c3)CNC4)c2)cs1,12.6
12,O=C(Nc1ccc2c(c1)CNC2)c1cc(Cl)cc2nn(C3COC3)cc12,42.5
13,CCCn1cc2c(C(=O)Nc3ccc4c(c3)CNC4)cc(Cl)cc2n1,1.97
14,CN1C(=O)CC[C@H]1c1nc2c(C(=O)Nc3ccc4c(c3)CNC4)cc(F)cc2[nH]1,14.1
15,COc1ccc(-c2nc3c(C(=O)Nc4ccc5c(c4)CNC5)cc(F)cc3[nH]2)nn1,3.68
16,CCNC(=O)Nc1cc(Cl)cc(C(=O)Nc2cc(C)cc(CN)c2)c1,19.8
17,O=C(NCCOCC1CC1)[C@H](Nc1ccc2c(c1)CNC2)c1cc(Cl)cc(C2CC2)c1,0.366
18,O=C1CCc2c(cccc2C(=O)Nc2ccc3c(c2)CNC3)N1,10.8
19,CCCCNC(=O)[C@H](Nc1ccc2c(c1)CNC2)c1cc(Cl)cc(C2CC2)c1,0.295
20,N#Cc1cc2c(cc1NC(=O)c1cc(F)cc3[nH]ncc13)CNC2,0.242
21,O=C(Nc1ccc2c(c1)CNC2)c1cc(F)cc(-c2cccnc2)c1,2.68
22,O=C(NCC(F)F)[C@H](Nc1ccc2c(c1)CNC2)c1cc(Br)cc2[nH]ccc12,0.556
23,Cc1cccc(-c2nc3c(C(=O)Nc4ccc5c(c4)CNC5)cc(F)cc3[nH]2)c1,26
24,Cc1ccccc1-c1nc2c(C(=O)Nc3ccc4c(c3)CNC4)cc(F)cc2[nH]1,8.51
25,O=C(Nc1ccc2c(c1)CNC2)c1cccc2c1[C@]1(CCNC1)C(=O)N2,1.62
26,Cc1ncc(-c2cc(F)cc(C(=O)Nc3ccc4c(c3)CNC4)c2)s1,2.28

row,SMILES,IC50 [µM]
1,CO[C@H](C)Cn1cc2c(C(=O)Nc3ccc4c(c3)CNC4)cc(Cl)cc2n1,19.8
2,CC(C)NC(=O)[C@H](Nc1ccc2c(c1)CN(C)C2)c1cc(Cl)cc2[nH]ncc12,1.67
3,O=C(Nc1ccc2c(c1)CNC2)c1cc(F)cc(-c2c[nH]c(=O)c(F)c2)c1,0.665
4,C=Cc1cc2c(cc1NC(=O)c1cc(F)cc3[nH]ncc13)CNC2,0.489
5,O=C(Nc1ccc2c(c1)CNC2)c1cc(F)cc2[nH]c(-c3ccccc3F)nc12,2.39
6,O=C(Nc1cc2c(cc1C1CC1)CNC2)c1cc(F)cc2[nH]ncc12,0.832
7,O=C(Nc1ccc2c(c1)CNC2)c1cc(F)cc2[nH]c(-c3cnccc3O)nc12,9.93
8,CCNC(=O)Nc1cc(Cl)cc(C(=O)Nc2cccc(CN)c2)c1,21.6
9,O=C(Nc1ccc2c(c1)CNC2)c1cc(Cl)cc2c1cnn2C[C@H]1CCCO1,6.08
10,O=C(Nc1ccc2c(c1)CNC2)c1cc(F)cc(/C=C/c2ccccc2)c1,2.91
11,O=C(Nc1ccc2c(c1)CN[C@H]2[C@H](O)CO)c1cc(F)cc2[nH]ncc12,6.73
12,C[C@]1(O)C(=O)Nc2cc(F)cc(C(=O)Nc3ccc4c(c3)CNC4)c21,5.58
13,NCc1cccc(NC(=O)c2cc(Cl)cc3[nH]ncc23)c1,35.8
14,Cn1ncc2c(C(=O)Nc3ccc4c(c3)CNC4)cc(Cl)cc21,1.88
15,O=C(Nc1ccc2c(c1)CN[C@H]2CCO)c1cc(F)cc2[nH]ncc12,1.66
16,O=C(Nc1ccc2c(c1)CNC2)c1cccc2c1[C@]1(CCN(C(=O)OCc3ccccc3)C1)C(=O)N2,3.55
17,CCc1cccc(-c2nc3c(C(=O)Nc4ccc5c(c4)CNC5)cc(F)cc3[nH]2)c1,18.9
18,Cc1cnccc1-c1cc(NC(=O)c2cc(F)cc3[nH]ncc23)cc2c1CNC2,2.77
19,O=C(Nc1ccc2c(c1)CNC2)c1cc(F)cc2[nH]c(-c3ccc(F)cc3)nc12,5.37
20,O=C(O)CCCc1cc(NC(=O)c2cc(F)cc3[nH]ncc23)cc2c1CNC2,1.51
21,CC(C)n1ncc2c(C(=O)Nc3ccc4c(c3)CNC4)cc(Cl)cc21,18.2
22,O=C(Nc1ccc2c(c1)CNC2)c1cc(Cl)cc2nn(C3CCC3)cc12,14.7
23,Cn1ccc(-c2cc(F)cc(C(=O)Nc3ccc4c(c3)CNC4)c2)cc1=O,2.23
24,Cc1cc(-c2cc(F)cc(C(=O)Nc3ccc4c(c3)CNC4)c2)[nH]n1,3.74
25,O=C(Nc1ccc2c(c1)CNC2)c1cc(Cl)cc2c1cnn2C1CCOCC1,1.45
26,COc1cc(C#N)cc([C@H](Nc2ccc3c(c2)CNC3)C(=O)NCC(F)F)c1,0.243

row,SMILES,IC50 [µM]
1,Cn1cc2c(C(=O)Nc3ccc4c(c3)CNC4)cc(Cl)cc2n1,15.1
2,N#Cc1csc2cc(C(=O)Nc3ccc4c(c3)CNC4)ccc12,25.2
3,O=C(Nc1ccc2c(c1)CNC2)c1cc(F)cc(C2=CCOCC2)c1,9.32
4,C=CC[C@H]1NCc2cc(N[C@H](C(=O)NCC(F)F)c3cc(Cl)cc(C4CC4)c3)ccc21,0.289
5,O=C(Nc1ccc2c(c1)CNC2)c1cc(F)cc2[nH]c(-c3ccc(F)cc3O)nc12,24.1
6,COc1cc(-c2cc(NC(=O)c3cc(F)cc4[nH]ncc34)cc3c2CNC3)ccn1,0.801
7,CS(=O)(=O)N1CC[C@]2(C1)C(=O)Nc1cccc(C(=O)Nc3ccc4c(c3)CNC4)c12,6.28
8,CSCCCNC(=O)[C@H](Nc1ccc2c(c1)CNC2)c1cc(Cl)cc(C2CC2)c1,0.573
9,CC(C)(c1nc2c(C(=O)Nc3ccc4c(c3)CNC4)cc(F)cc2[nH]1)S(C)(=O)=O,9.71
10,CC(C)n1cc2c(C(=O)Nc3ccc4c(c3)CNC4)cc(Cl)cc2n1,1.73
11,COC(=O)c1cc2c(cc1NC(=O)c1cc(F)cc3[nH]ncc13)CNC2,1
12,COCCCNC(=O)[C@H](Nc1ccc2c(c1)CNC2)c1cc(Cl)cc(C2CC2)c1,0.583
13,NCCc1csc2cc(C(=O)Nc3ccc4c(c3)CNC4)ccc12,2.09
14,O=C(Nc1ccc2c(c1)CN[C@H]2C[C@H](O)CO)c1cc(Cl)cc2[nH]ncc12,5.56
15,O=C(Nc1ccc2c(c1)CNC2)c1cc(F)c2[nH]c(=O)[nH]c2c1,18
16,O=C(Nc1ccc2c(c1)CN[C@H]2CO)c1cc(F)cc2[nH]ncc12,4.53
17,C=C[C@H]1NCc2cc(NC(=O)c3cc(F)cc4[nH]ncc34)ccc21,3.07
18,CCCn1ncc2c(C(=O)Nc3ccc4c(c3)CNC4)cc(Cl)cc21,12.5
19,O=C(Nc1cc2c(c(C3=CCS(=O)(=O)CC3)c1)CNC2)c1cc(F)cc2[nH]ncc12,0.892
20,O=C(Nc1cc2c(c(-c3ccnnc3)c1)CNC2)c1cc(Cl)cc2[nH]ncc12,3.06
21,O=C(Nc1ccc2c(c1)CNC2)c1cc(Cl)cc2c1cnn2C1CCC1,1.7
22,O=C(Nc1ccc2c(c1)CNC2)c1cc(F)cc(-c2ccncc2)c1,3.65
23,O=C(Nc1cc2c(c(C3=CCOCC3)c1)CNC2)c1cc(F)cc2[nH]ncc12,0.627
